In patent US20250177396A1, “POLO-LIKE KINASE 4 (PLK4) INHIBITORS, PHARMACEUTICAL COMPOSITIONS, METHODS OF PREPARATION AND USES THEREOF” (Repare Therapeutics Inc., priority 2022, published 2025):

Target: T1, PLK4 (Homo sapiens, UniProt O00444)
T1 construct: expressed in transfected cells; host or cells: HEK293 T cells (ATCC CRL-3216)
T1 sequence (O00444 1-970): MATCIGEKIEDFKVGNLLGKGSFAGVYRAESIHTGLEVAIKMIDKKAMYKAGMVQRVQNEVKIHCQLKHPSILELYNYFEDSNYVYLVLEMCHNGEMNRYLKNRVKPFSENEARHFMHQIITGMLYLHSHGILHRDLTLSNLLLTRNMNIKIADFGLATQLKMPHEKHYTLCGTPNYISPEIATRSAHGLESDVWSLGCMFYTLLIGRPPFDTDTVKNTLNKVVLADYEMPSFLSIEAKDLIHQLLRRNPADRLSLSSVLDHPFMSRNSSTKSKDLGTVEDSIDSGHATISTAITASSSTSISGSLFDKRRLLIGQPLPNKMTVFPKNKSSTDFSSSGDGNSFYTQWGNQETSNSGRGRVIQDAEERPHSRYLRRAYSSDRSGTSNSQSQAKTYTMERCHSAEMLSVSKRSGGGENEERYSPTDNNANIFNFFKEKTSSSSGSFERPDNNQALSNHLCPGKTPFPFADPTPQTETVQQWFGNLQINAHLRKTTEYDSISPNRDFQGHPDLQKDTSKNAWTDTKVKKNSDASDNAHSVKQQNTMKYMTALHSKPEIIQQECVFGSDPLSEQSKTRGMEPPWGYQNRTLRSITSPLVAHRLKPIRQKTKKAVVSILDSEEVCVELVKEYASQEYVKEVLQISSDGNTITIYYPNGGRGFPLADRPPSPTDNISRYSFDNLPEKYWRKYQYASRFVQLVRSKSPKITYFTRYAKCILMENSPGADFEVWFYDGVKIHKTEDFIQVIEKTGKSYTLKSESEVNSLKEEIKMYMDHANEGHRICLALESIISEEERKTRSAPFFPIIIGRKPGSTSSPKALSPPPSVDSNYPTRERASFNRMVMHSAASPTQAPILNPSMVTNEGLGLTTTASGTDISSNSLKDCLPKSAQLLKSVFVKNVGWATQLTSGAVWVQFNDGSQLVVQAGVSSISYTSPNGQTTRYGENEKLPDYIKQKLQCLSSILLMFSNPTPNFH
Experiment: PLK4 NanoBRET target engagement assay
Format: binding
Conditions: HEK293 T cells transfected with PLK4 NanoLuc fusion vector; K-5 tracer; 2 hrs incubation
Procedure: To determine the affinity of Compounds described herein in the PLK4 NanoBRET target engagement assay, HEK293 T cells (ATCC Product Number CRL-3216) are first transfected with the PLK4 NanoLuc fusion vector DNA and Transfection carrier DNA using the Fugene HD Transfection reagent in Opti-MEM No Phenol Red buffer. After an overnight incubation in a 37° C./5% CO2 incubator, the transfected HEK293 T cells are trypsinized, counted, and resuspended in Opti-MEM No Phenol Red buffer at a concentration of 200000 cells/mL. White 96-well plates are then plated with 85 μL of cells (17000 cells/well) to which 5 μL of the 20×K-5 tracer solution diluted in tracer dilution buffer is added. Finally, 10 μL of the 10× compounds are added and the plates and then incubated in a 37° C./5% CO2 incubator for 2 hrs. After the incubation, a 50 uL 3× solution of the substrate/inhibitor mix is added to the cells. The plate is then transferred in the Envision plate reader where the Acceptor emission (610 nm) and the Donor emission (450 nm) are measured.
The IC50 of compounds is determined as follows: • 1. The ratio between the Acceptor emission (610 nm)/Donor emission (450 nm) is calculated. • 2. This ratio is then multiplied by 1000 to obtain the mBRET units (multiplying by 1000 is an arbitrary step that simply makes the data easier to interpret; it has no impact on the data set itself) • 3. The mBRET units are then used in Scigilian Analyze software (https://analyze.scigilian.io) to determine the IC50 value using a 4-parameter fit analysis.

| Structure (SMILES) | IC50 |
| --- | --- |
| Cc1cc(Nc2nc(N(C)c3c(F)cc(S(C)(=O)=O)cc3F)cc(-c3cnn(C)c3)c2C2CC2)n[nH]1 [Compound 92] | 53 nM |
| Cc1cc(Nc2nc(N(C)c3ccc(S(C)(=O)=O)cc3F)cc(-c3cnn(C)c3)c2C2CC2)n[nH]1 [Compound 93] | 78 nM |
| Cc1cc(Nc2nc(Sc3ccc(S(C)(=O)=O)cc3F)cc(-c3cnn(C)c3)c2C2CC2)n[nH]1 [Compound 94] | 110 nM |
| COc1c(Nc2cc(C)[nH]n2)nc(Sc2ccc(S(C)(=O)=O)cc2F)c(F)c1-c1cnn(C)c1 [Compound 95] | 170 nM |
| COc1c(Nc2cc(C)[nH]n2)nc(Nc2ccc(S(C)(=O)=O)cc2C)c(C)c1-c1cnn(C)c1 [Compound 96] | 670 nM |
| COc1c(Nc2cc(C)[nH]n2)nc(Sc2ccc(S(C)(=O)=O)cc2F)c(N(C)C)c1-c1cnn(C)c1 [Compound 97] | 1200 nM |
| COc1c(Nc2cc(C)[nH]n2)nc(N(C)c2ccc(S(C)(=O)=O)cc2F)c(C#N)c1-c1cnn(C)c1 [Compound 98] | 2000 nM |
| COc1c(Nc2cc(C)[nH]n2)nc(N(C)c2ccc(S(C)(=O)=O)cc2F)c(C)c1-c1cnn(C)c1 [Compound 99] | 4800 nM |
| COc1c(Nc2cc(C)[nH]n2)nc(Sc2ccc(S(C)(=O)=O)cc2F)c(Cl)c1-c1cnn(C)c1 [Compound 100] | 240 nM |
| COc1c(Nc2cc(C)[nH]n2)nc(Sc2ccc(S(C)(=O)=O)cc2F)c(C#N)c1-c1cnn(C)c1 [Compound 101] | 120 nM |
| COc1c(Nc2cc(C)[nH]n2)nc(Sc2ccc(S(C)(=O)=O)cc2F)c(N)c1-c1cnn(C)c1 [Compound 102] | 840 nM |
| Cc1cc(Nc2nc(N(C)c3c(F)cc(S(C)(=O)=O)cc3F)nc(-c3c[nH]cn3)c2C2CC2)n[nH]1 [Compound 103] | 9 nM |
| Cc1cc(Nc2nc(N(C)c3c(F)cc(S(C)(=O)=O)cc3F)nc(-c3cnn(C)n3)c2C2CC2)n[nH]1 [Compound 104] | 15 nM |
| Cc1cc(Nc2nc(N(C)c3ccc(S(C)(=O)=O)cc3F)nc(-n3cncn3)c2C2CC2)n[nH]1 [Compound 105] | 740 nM |
| Cc1cc(Nc2nc(N(C)c3c(F)cc(S(C)(=O)=O)cc3F)nc(-c3cc[nH]n3)c2C2CC2)n[nH]1 [Compound 106] | 6 nM |
| Cc1cn(-c2nc(N(C)c3ccc(S(C)(=O)=O)cc3F)nc(Nc3cc(C)[nH]n3)c2C2CC2)cn1 [Compound 107] | 120 nM |
| Cc1cc(Nc2nc(N(C)c3ccc(S(C)(=O)=O)cc3F)nc(-c3cnn4cccnc34)c2C2CC2)n[nH]1 [Compound 108, 5-cyclopropyl-N^2-(2-fluoro-4-(methylsulfonyl)phenyl)-N^2-methyl-N^4-(5-methyl-1H-pyrazol-3-yl)-6-(pyrazolo[1,5-a]pyrimidin-3-yl)pyrimidine-2,4-diamine] | 16 nM |
| Cc1cc(Nc2nc(N(C)c3ccc(S(C)(=O)=O)cc3F)nc(-c3cnn(C)n3)c2C2CC2)n[nH]1 [Compound 109] | 49 nM |
| Cc1cc(Nc2nc(N(C)c3ccc(S(C)(=O)=O)cc3F)nc(N3CCOc4ccncc43)c2C2CC2)n[nH]1 [Compound 110, 5-cyclopropyl-6-(2,3-dihydro-4H-pyrido[4,3-b][1,4]oxazin-4-yl)-N^2-(2-fluoro-4-(methylsulfonyl)phenyl)-N^2-methyl-N^4-(5-methyl-1H-pyrazol-3-yl)pyrimidine-2,4-diamine] | 160 nM |
| Cc1cc(Nc2nc(N(C)c3ccc(S(C)(=O)=O)cc3F)nc(N3CCCC(S(C)(=O)=O)C3)c2C2CC2)n[nH]1 (stereo not shown) [Compound 111, 5-cyclopropyl-N^2-(2-fluoro-4-(methylsulfonyl)phenyl)-N^2-methyl-N^4-(5-methyl-1H-pyrazol-3-yl)-6-(3-(methylsulfonyl)piperidin-1-yl)pyrimidine-2,4-diamine] | 43 nM |
| Cc1cnn(-c2nc(N(C)c3ccc(S(C)(=O)=O)cc3F)nc(Nc3cc(C)[nH]n3)c2C2CC2)c1 [Compound 112] | 110 nM |
| Cc1ccn(-c2nc(N(C)c3ccc(S(C)(=O)=O)cc3F)nc(Nc3cc(C)[nH]n3)c2C2CC2)n1 [Compound 113] | 150 nM |
